According to paper PMC8493129, “Design and Synthesis of New Quinoxaline Derivatives as Potential Histone Deacetylase Inhibitors Targeting Hepatocellular Carcinoma: In Silico, In Vitro, and SAR Studies” (Frontiers in Chemistry, 2021):
Where “and” joins values, the source holds several entries; their conditions need not be identical. Equal entries are not always repeated.

Assays:
[1] = test system: HepG-2 liver cancer cell line; test: Anti-proliferative activity (MTT / SRB assay), HepG-2; type: cell-based, human; conditions: for IC50: Homo sapiens, HepG2, mean of three separate experiments
Method: (§1) The new quinoxaline derivatives of the five series: 6, 7, 8, 9, and 10 were evaluated for their potential anti-proliferative activity against two liver cancer cell lines (HepG-2 and HuH-7) obtained from the American Type Culture Collection.

[2] = test system: HuH-7 liver cancer cell line; test: Anti-proliferative activity (MTT / SRB assay), HuH-7; type: cell-based, human; conditions: for IC50: Homo sapiens, mean of three separate experiments
Method: as §1

Bax = test: Apoptotic marker level (Bax) in HepG-2 cells; type: cell-based, human; conditions: control 24.37 pg/ml
Method: (§2) The method was performed in detail as previously explained ([Eliaa et al., 2020]).

Bcl-2 = test: Anti-apoptotic marker level (Bcl-2) in HepG-2 cells; type: cell-based, human; conditions: control 5.048 pg/ml
Method: as §2

HDAC1 = HDAC1 (Homo sapiens, UniProt Q13547); test: Histone deacetylase inhibition, homogeneous fluorescence release assay
Sequence of HDAC1 (Q13547 whole entry): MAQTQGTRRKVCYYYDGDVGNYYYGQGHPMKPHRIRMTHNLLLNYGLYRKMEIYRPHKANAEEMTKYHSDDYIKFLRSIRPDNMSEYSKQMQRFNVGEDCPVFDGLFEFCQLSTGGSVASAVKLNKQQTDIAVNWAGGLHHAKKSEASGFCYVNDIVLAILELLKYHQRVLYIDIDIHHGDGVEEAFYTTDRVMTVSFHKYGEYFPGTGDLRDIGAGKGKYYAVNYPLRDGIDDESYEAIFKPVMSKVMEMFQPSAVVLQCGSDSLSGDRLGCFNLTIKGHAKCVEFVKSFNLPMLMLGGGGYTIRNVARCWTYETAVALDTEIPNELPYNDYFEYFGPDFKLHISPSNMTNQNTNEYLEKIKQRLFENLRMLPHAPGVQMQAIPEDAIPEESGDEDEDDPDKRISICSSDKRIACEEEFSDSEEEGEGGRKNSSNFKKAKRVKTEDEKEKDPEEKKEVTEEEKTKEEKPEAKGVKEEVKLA

HDAC4 = HDAC4 (Homo sapiens, UniProt P56524); test: as above
Sequence of HDAC4 (P56524 whole entry): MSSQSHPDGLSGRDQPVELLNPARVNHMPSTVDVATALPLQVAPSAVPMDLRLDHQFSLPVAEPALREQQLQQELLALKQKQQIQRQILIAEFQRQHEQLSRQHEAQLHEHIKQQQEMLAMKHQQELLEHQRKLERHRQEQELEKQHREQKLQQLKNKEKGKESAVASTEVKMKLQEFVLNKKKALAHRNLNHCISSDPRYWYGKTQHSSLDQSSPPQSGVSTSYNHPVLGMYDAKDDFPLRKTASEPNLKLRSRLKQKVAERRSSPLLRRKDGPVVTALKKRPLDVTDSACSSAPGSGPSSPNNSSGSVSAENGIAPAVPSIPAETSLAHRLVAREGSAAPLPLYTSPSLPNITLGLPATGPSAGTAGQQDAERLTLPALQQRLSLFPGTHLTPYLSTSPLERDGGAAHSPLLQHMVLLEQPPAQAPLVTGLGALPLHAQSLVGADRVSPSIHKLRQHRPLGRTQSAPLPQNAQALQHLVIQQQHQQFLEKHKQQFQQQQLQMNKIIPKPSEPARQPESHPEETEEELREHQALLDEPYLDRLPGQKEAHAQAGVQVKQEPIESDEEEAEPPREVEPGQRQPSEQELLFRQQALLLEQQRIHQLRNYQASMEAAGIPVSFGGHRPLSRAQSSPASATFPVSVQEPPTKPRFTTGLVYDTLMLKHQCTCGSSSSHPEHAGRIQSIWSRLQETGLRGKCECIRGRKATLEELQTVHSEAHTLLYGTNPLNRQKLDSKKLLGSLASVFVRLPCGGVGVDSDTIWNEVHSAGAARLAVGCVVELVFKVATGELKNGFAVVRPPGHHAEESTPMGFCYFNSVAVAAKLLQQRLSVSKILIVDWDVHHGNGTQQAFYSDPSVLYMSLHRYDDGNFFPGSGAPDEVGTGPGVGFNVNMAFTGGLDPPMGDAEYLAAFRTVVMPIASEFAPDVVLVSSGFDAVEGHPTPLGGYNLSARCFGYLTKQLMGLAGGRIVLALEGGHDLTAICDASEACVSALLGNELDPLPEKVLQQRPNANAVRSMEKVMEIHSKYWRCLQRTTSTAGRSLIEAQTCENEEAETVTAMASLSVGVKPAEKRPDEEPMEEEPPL

HDAC6 = biological target: T1, HDAC6 (Homo sapiens, UniProt Q9UBN7); test: as above
T1 sequence (Q9UBN7 1-1215): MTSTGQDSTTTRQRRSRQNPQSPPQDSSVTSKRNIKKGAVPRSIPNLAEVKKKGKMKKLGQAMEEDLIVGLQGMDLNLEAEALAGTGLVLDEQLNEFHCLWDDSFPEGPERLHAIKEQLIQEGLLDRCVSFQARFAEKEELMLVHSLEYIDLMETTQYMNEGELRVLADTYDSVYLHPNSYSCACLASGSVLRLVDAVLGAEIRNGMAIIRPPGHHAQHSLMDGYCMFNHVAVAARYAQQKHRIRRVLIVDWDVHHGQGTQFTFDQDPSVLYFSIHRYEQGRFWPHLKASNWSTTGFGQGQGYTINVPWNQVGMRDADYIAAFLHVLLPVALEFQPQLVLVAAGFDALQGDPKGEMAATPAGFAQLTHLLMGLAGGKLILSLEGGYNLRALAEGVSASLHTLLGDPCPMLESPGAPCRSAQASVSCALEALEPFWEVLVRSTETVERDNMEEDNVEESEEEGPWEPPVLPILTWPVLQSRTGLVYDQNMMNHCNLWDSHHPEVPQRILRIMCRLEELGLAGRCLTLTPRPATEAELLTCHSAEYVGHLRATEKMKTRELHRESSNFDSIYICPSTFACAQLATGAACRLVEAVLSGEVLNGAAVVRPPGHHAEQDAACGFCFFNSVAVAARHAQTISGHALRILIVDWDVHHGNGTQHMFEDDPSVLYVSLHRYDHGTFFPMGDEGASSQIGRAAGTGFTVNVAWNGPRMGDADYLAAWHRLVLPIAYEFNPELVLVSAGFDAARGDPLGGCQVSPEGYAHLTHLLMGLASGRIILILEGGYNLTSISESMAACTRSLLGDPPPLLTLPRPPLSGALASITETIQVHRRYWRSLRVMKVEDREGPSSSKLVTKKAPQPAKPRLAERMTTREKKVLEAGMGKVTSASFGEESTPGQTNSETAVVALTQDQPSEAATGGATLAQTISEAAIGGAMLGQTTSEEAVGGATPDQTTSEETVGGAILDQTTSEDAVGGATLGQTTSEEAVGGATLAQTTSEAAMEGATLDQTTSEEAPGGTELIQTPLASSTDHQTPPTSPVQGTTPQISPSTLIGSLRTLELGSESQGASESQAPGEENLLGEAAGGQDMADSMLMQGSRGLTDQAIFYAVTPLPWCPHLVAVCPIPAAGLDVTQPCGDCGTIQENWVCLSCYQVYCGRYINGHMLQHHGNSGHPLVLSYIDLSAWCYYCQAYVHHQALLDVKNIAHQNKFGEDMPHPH

[3] = test system: HepG-2 and HuH-7 liver cancer cell lines; test: Anti-proliferative activity, statements covering both cell lines; type: cell-based, human; conditions: class by IC50 on HepG-2 and HuH-7
Method: as §1

HepG-2 cells [4] = test: Cell cycle analysis by flow cytometry; type: cell-based, human
Method: The most compound 6 c incorporating 4-Cl benzylidene side chain was further evaluated through cell cycle analysis in HepG-2 cell line. Such a test was carried out to detect the exact phase at which cell cycle arrest takes place.

HepG-2 cells [5] = test: Annexin V-FITC apoptosis assay; type: cell-based, human; conditions: HepG-2, 1.53 µM
Method: It is well-known that cell death may be due to programmed apoptosis or uncontrolled necrosis. Annexin V-based flow cytometry assay as a helpful strategy to determine the exact cause of death was carried out. […] This confirms that the cytotoxic activity of compound 6 c is due to programmed apoptosis, and not to nonspecific necrosis.
The previous compound was analyzed by FACS as we previously described ([Al-Rashood et al., 2020]; [Eliaa et al., 2020]; [Eldehna et al., 2021]).

SMILES	IC50 ([1]; HepG-2)	IC50 [2]	Bax (Bax)	Bcl-2 (Bcl-2)	IC50 (HDAC1)	IC50 (HDAC4)	IC50 (HDAC6)	cytotoxic (anti-proliferative) activity class [3]	other results
CN(C)c1ccc(C=NNc2nc3ccccc3nc2Cl)cc1 [Compound 6 l, 4-((2-(3-Chloroquinoxalin-2-yl)hydrazono)methyl)-N,N-dimethylaniline]	5.39 µM	9.27 µM	219.7 pg/mL	2.519 pg/mL	3.29 µM	2.79 µM	4.09 µM	–	–
CC(=NNc1nc2ccccc2nc1Cl)c1ccccc1O [Compound 7 b, 2-(1-(2-(3-Chloroquinoxalin-2-yl)hydrazono)ethyl)phenol]	4.03 µM	6.19 µM	217.9 pg/mL	2.371 pg/mL	2.67 µM	2.51 µM	5.24 µM	very strong (1–10 (very strong))	–
Oc1ccc2ccccc2c1C=NNc1nc2ccccc2nc1Cl [Compound 8, 1-((2-(3-Chloroquinoxalin-2-yl)hydrazono)methyl)naphthalen-2-ol]	3.88 µM	6.14 µM	233.6 pg/mL	1.839 pg/mL	1.72 µM	2.09 µM	4.37 µM	very strong (1–10 (very strong))	fold increase in activity versus corresponding member 11, HepG-2 ([1]; ratio of IC50 values, HepG-2): 4.76 fold; fold more active than compound 9 ([1]; ratio of IC50 values, stated for the two cell lines, figure fits HepG-2): 2.98 fold; fold increase in activity versus corresponding member 11, HuH-7 ([2]; ratio of IC50 values): 3.30 fold
Oc1ccccc1C=NNc1nc2ccccc2nc1Cl [Compound 6 k, 2-((2-(3-Chloroquinoxalin-2-yl)hydrazono)methyl)phenol]	7.71 µM	6.52 µM	164.3 pg/mL	2.914 pg/mL	4.18 µM	3.81 µM	6.29 µM	–	–
COc1nc2ccccc2nc1N/N=C1/C(=O)Nc2ccccc21 [Compound 12]	1.99 µM	3.08 µM	257.9 pg/mL	1.571 pg/mL	2.01 µM	1.72 µM	3.62 µM	very strong (1–10 (very strong))	fold increase in activity versus corresponding member 9, HepG-2 ([1]; ratio of IC50 values, HepG-2): 5.81 fold; fold increase in activity versus corresponding member 9, HuH-7 ([2]; ratio of IC50 values): 5.33 fold
COc1nc2ccccc2nc1NN=Cc1ccccc1O [Compound 10 h, 2-((2-(3-Methoxyquinoxalin-2-yl)hydrazono)methyl)phenol]	5.56 µM	6.72 µM	205.4 pg/mL	2.673 pg/mL	3.54 µM	3.15 µM	7.21 µM	–	–
O=C1Nc2ccccc2/C1=N\Nc1nc2ccccc2nc1Cl [Compound 9, 2-(2-(3-Chloroquinoxalin-2-yl)hydrazono)indolein-3-one]	11.6 µM	16.4 µM	–	–	–	–	–	strong (11–20 (strong))	–
COc1ccccc1C=NNc1nc2ccccc2nc1Cl [Compound 6 f, 2-Chloro-3-(2-(2-methoxybenzylidene)hydrazinyl)quinoxaline]	6.63 µM	8.52 µM	185.7 pg/mL	2.705 pg/mL	3.29 µM	3.44 µM	5.32 µM	–	–
COc1nc2ccccc2nc1NN=Cc1c(O)ccc2ccccc12 [Compound 11, 1-((2-(3-Methoxyquinoxalin-2-yl)hydrazono)methyl)naphthalen-2-ol]	18.5 µM	20.3 µM	–	–	–	–	–	strong (11–20 (strong))	–
COc1ccc(C=NNc2nc3ccccc3nc2Cl)cc1OC [Compound 6 g, 2-Chloro-3-(2-(3,4-dimethoxybenzylidene)hydrazinyl)quinoxaline]	2.16 µM	3.05 µM	247.5 pg/mL	1.687 pg/mL	2.17 µM	1.64 µM	3.81 µM	–	–
Clc1ccc(C=NNc2nc3ccccc3nc2Cl)cc1 [Compound 6 c, 2-Chloro-3-(2-(4-chlorobenzylidene)hydrazinyl)quinoxaline]	1.53 µM	3.06 µM	274.3 pg/mL	1.27 pg/mL and 1.278 pg/mL	1.76 µM	1.39 µM	3.46 µM	–	decline in the cell population at G0/G1 phase compared to control (HepG-2 cells [4]; HepG-2, 1.53 µM): 1.23 fold; decline in the cell population at S phase compared to control (HepG-2 cells [4]; HepG-2, 1.53 µM): 1.18 fold; increase in the population of cells at the G2/M phase compared to control (HepG-2 cells [4]; HepG-2, 1.53 µM): 1.76 fold; %G2/M (HepG-2 cells [4]; HepG-2 cells treated at 1.53 µM, control 18.67%): 32.93%; %S (HepG-2 cells [4]; HepG-2 cells treated at 1.53 µM, control 35.93%): 30.32%; %G0-G1 (HepG-2 cells [4]; HepG-2 cells treated at 1.53 µM, control 45.40%): 36.75%; increase in apoptosis percentage compared to the control, early phase (HepG-2 cells [5]): 9.98 fold; increase in apoptosis percentage compared to the control, late phase (HepG-2 cells [5]): 10.81 fold; AnxV-FITC apoptotic cells percentage, late apoptosis (HepG-2 cells [5]; control 0.53%): 5.73%; AnxV-FITC apoptotic cells percentage, early apoptosis (HepG-2 cells [5]; control 0.62%): 6.19%
Clc1ccc(C=NNc2nc3ccccc3nc2Cl)c(Cl)c1 [Compound 6 d, 2-Chloro-3-(2-(2,4-dichlorobenzylidene)hydrazinyl)quinoxaline]	6.16 µM	9.47 µM	179.2 pg/mL	2.711 pg/mL	3.52 µM	3.25 µM	4.28 µM	–	–
